Reference: patent US20030109035A1, “Method of forming vertebrate pancreas in vitro” (priority 2000, published 2003)

What was measured:
insulin and XlHbox8 = assay: RT-PCR expression of pancreas-specific genes in explants; format: cell-based, Xenopus laevis; conditions: treated with one agent alone, cultured three days
Text: C., and the expression of insulin that is a pancreas-specific gene (Henry, G. L. et al.; Development 122, 1007-1015, 1996) and XlHbox8 (Lemaire, P. et al.; Development 125, 2371-2380, 1998) were examined by the method as previously described (Yokota, C. et al.; J. Biochem. 123, 339-346, 1998). […] EF-1α (elongation factor 1α) was used as a loading control. The combination of primers of each gene in PCR reaction that were used is as follows: insulin [insulin-[…] No. 1), insulin-[…] No. 2)], […] No. 3), […] No. 4)], […] No. 5), and […] No. 6)]. Seventy-six μl of DDW, 10 μl of 10×Ex buffer, 8 μl of 2.5 mM dNTPs mix, 0.5 μl of 5[…] 0.5 μl of 100 μM of each of the above-mentioned primers were added to 5 μl of the above-mentioned cDNA (20 ng/μl), and PCR reaction was conducted with the total amount of 100 μl. The thermal cycle program, which is a cycle to denature for four minutes at 94° C. only at the first time, followed by thermal denaturation for 30 seconds at 94° C., […], was repeated for 23 to 30 times. Ultimately, annealing was conducted for nine minutes at 72° C. […] As a negative control, EF-1α wherein RT-PCR was conducted under a condition where the reverse transcription factor had been eliminated was used.

[1] = system: blastopore upper lip cell of Xenopus early gastrula; conditions: cited from earlier work
whole embryos = assay: Retinoic acid treatment of whole embryos from blastula to gastrula; format: in vivo, Xenopus
Text: Moreover, there has been a report regarding the effect of retinoic acid to the endoderm of Xenopus embryo (Zeynali, B. and Dixon, K. E.; Dev. Genes. Evol. 208, 318-326, 1998). […] The present inventors conducted retinoic acid treatment to the whole embryos from the period of blastula to gastrula. […] However, the physical relationship of each of the endodermal organs was abnormal and the endodermal organs were formed aggregately in the anterior and posterior axis direction.

[2] = system: Xenopus embryos at developmental stage 22 to 32; conditions: cited from earlier work
[3] = system: pieces of presumptive ectoderm of Xenopus late blastula; assay: Time lag treatment of pieces of presumptive ectoderm with activin then retinoic acid, tissues that differentiate; format: cell-based, Xenopus laevis; conditions: activin 100 ng/ml alone 1 h, 65 samples
Procedure: (§1) The dorsal lymph sacs of adult male and female Xenopus laevis were each injected with 600 IU of hCG (human chorionic gonadotropin; Gestron; Denka Seiyaku, Japan), and fertilized eggs were obtained by mating these Xenopuses. These late blastulas [developmental stage 9] were dejellied in Steinberg's solution (SS: 58.00 mM NaCl, 0.67 mM KCl, 0.34 mM Ca(NO3)2, 0.83 mM MgSO4, 3.00 mM HEPES and 100 mg/l kanamycin sulfate; pH 7.4) containing 4.5% cysteine hydrochloride (pH 7.8), and the vitelline membranes were removed in the Steinberg's solution by using a pair of watchmaker's tweezers. The presumptive ectoderm portion of Xenopus late blastula thus obtained was cut into a size of 0.4 mm×0.4 mm by using a tungsten needle.
A time lag was provided between the treatment with activin and treatment with retinoic acid, so that the action of retinoic acid can be received for the first time, after the differentiation to dorsal mesoderm/anterior endoderm had been determined by action of activin. […] After the elapse of the time lag, the pieces of presumptive ectoderm were left at rest in retinoic acid solution at 10^−4 M for one hour, washed two times with Steinberg's solution containing 0.1% BSA, and then cultured in Steinberg's solution containing 0.1% BSA at 20° C. for ten days (see time lag treatment in FIG. 1). These explants that had been cultured were stained in the same manner as described in Example 2, and the tissues that differentiated were observed and examined under a light microscope.

Xenopus animal cap cells = conditions: cited from earlier work
[4] = system: pieces of presumptive ectoderm of Xenopus late blastula; assay: Simultaneous one-hour treatment of pieces of presumptive ectoderm with activin/retinoic acid, tissues that differentiate (light microscopy); format: cell-based, Xenopus laevis
Procedure: as §1
(§2) Human recombinant activin A (Ajinomoto Co., Inc.) was dissolved in Steinberg's solution containing 0.1% bovine serum albumin (BSA) to a concentration of 100 ng/ml, and an activin solution was prepared.
C. (see temporary treatment in FIG. 1). These explants that had been cultured were fixed with Bouin's solution, followed by dehydration treatment of a series of ethanol and xylene, and these explants were embedded in paraffin and sliced into 6 μm sections. These sections were stained with hematoxylin and eosin, and the tissues that differentiated were observed and examined under a light microscope. Further, the untreated pieces of presumptive ectoderm were also observed and examined in the same manner by using a light microscope.

[5] = system: pieces of presumptive ectoderm of Xenopus late blastula; assay: Simultaneous and continuous treatment of pieces of presumptive ectoderm with activin/retinoic acid, tissues that differentiate; format: cell-based, Xenopus laevis; conditions: continuous, activin 100 ng/ml, retinoic acid 0 M, 10 samples
Procedure: as §1, §2
Based on the results from Example 2, since the effect of retinoic acid treatment was found in the differential pattern of mesodermal tissues, it can be considered that retinoic acid acted in the period when the fate of the mesoderm is determined to each mesodermal tissue (notochord, muscle, pronephric tubule and the like, for example). […] C. for 10 days (see continuous treatment in FIG. 1). These explants that had been cultured were stained in the same manner as in Example 2, and the tissues that differentiated were observed and examined by using a light microscope.

[6] = activin 100 ng/ml, retinoic acid 0 M, 1 h, 31 samples

Compound: CC1=C(/C=C/C(C)=C/C=C/C(C)=C/C(=O)O)C(C)(C)CCC1 [retinoic acid, All-trans retinoic acid]
- expression of insulin and XlHbox8 (insulin and XlHbox8): expression of these genes was not found
- pancreas formation [1]: enables pancreas formation with high efficiency
- morphology of treated embryos (whole embryos): head-deficient embryos
- induction of pancreas in vivo (whole embryos; whole embryos treated from blastula to gastrula): pancreas was not induced specifically in vivo
- expression of XlHbox8 [2]: no effect is found in the expression of XlHbox8
- formation of pancreas [2]: formed normally
- morphology of the digestive organs [2]: the morphology of the digestive organs such as intestines, liver and stomach become abnormal

Compound: activin: Human recombinant activin A (Ajinomoto Co., Inc.)
- expression of insulin and XlHbox8 (insulin and XlHbox8): induced only a little
- Atypical epidermis differentiated in explants [3]: 0(0) number (percentage)
- Cartilage differentiated in explants [3]: 12(18) number (percentage)
- Coelomic epithelium differentiated in explants [3]: 28(43) number (percentage)
- Epidermis differentiated in explants [3]: 59(91) number (percentage)
- Intestinal epithelium differentiated in explants [3]: 3(5) number (percentage)
- Mesenchyme differentiated in explants [3]: 59(91) number (percentage)
- Muscle differentiated in explants [3]: 37(57) number (percentage)
- Neural tissue differentiated in explants [3]: 32(49) number (percentage)
- Notochord differentiated in explants [3]: 34(52) number (percentage)
- Pancreas differentiated in explants [3]: 0(0) number (percentage)
- Pharyngeal epithelium differentiated in explants [3]: 37(57) number (percentage)
- Pronephric tubule differentiated in explants [3]: 5(8) number (percentage)
- Yolk-rich cell differentiated in explants [3]: 29(45) number (percentage)
- induction of mesodermal tissues (Xenopus animal cap cells): induces most mesodermal tissues such as notochord, muscle, mesenchyme and coelomic epithelium, dose-dependently
- Atypical epidermis differentiated in explants [4, 6]: 0(0) number (percentage)
- Cartilage differentiated in explants [4, 6]: 5(16) number (percentage)
- Coelomic epithelium differentiated in explants [4, 6]: 15(48) number (percentage)
- Epidermis differentiated in explants [4, 6]: 30(97) number (percentage)
- Intestinal epithelium differentiated in explants [4, 6]: 0(0) number (percentage)
- Mesenchyme differentiated in explants [4, 6]: 31(100) number (percentage)
- Muscle differentiated in explants [4, 6]: 25(81) number (percentage)
- Neural tissue differentiated in explants [4, 6]: 12(39) number (percentage)
- Notochord differentiated in explants [4, 6]: 4(13) number (percentage)
- Pancreas differentiated in explants [4, 6]: 0(0) number (percentage)
- Pharyngeal epithelium differentiated in explants [4, 6]: 12(39) number (percentage)
- Pronephric tubule differentiated in explants [4, 6]: 7(23) number (percentage)
- Yolk-rich cell differentiated in explants [4, 6]: 18(58) number (percentage)
- tissues that differentiated ([4]; treated only with activin (100 ng/ml)): dorsal mesodermal and anterior endodermal tissues such as notochord, muscle, pharyngeal epithelium and the like differentiated
- Atypical epidermis differentiated in explants [5]: 0(0) number (percentage)
- Cartilage differentiated in explants [5]: 1(10) number (percentage)
- Coelomic epithelium differentiated in explants [5]: 4(40) number (percentage)
- Epidermis differentiated in explants [5]: 9(90) number (percentage)
- Intestinal epithelium differentiated in explants [5]: 0(0) number (percentage)
- Mesenchyme differentiated in explants [5]: 9(90) number (percentage)
- Muscle differentiated in explants [5]: 10(100) number (percentage)
- Neural tissue differentiated in explants [5]: 10(100) number (percentage)
- Notochord differentiated in explants [5]: 3(30) number (percentage)
- Pancreas differentiated in explants [5]: 0(0) number (percentage)
- Pharyngeal epithelium differentiated in explants [5]: 5(50) number (percentage)
- Pronephric tubule differentiated in explants [5]: 0(0) number (percentage)
- Yolk-rich cell differentiated in explants [5]: 5(50) number (percentage)
